# Laboratory results: patent US10308620B2, “Muscarinic M1 receptor positive allosteric modulators” (SUVEN LIFE SCIENCES LIMITED, priority 2015, dated 2019)
# Assays:
# [1] = target: recombinant human Muscarinic M1 receptor (Homo sapiens (Human), UniProt P11229); assay: Allosteric potency EC50, CHO cells with pCRE-Luc reporter, in presence of EC20 of acetylcholine; assay type: cell-based; settings: 4 hours
# Procedure: Determination of Allosteric Potency EC50 Values for Muscarinic M1 Receptor:
# A stable CHO cell line expressing recombinant human Muscarinic M1 receptor and pCRE-Luc reporter system was used for cell-based assay. The assay offers a non-radioactive based approach to determine binding of a compound to GPCRs. In this specific assay, the level of intracellular cyclic AMP which is modulated by activation or inhibition of the receptor is measured. The recombinant cells harbor luciferase reporter gene under the control of cAMP response element.
# The above cells were grown in 96 well clear bottom white plates in Hams F12 medium containing 10% fetal bovine serum (FBS). Prior to the addition of compounds or standard agonist, cells were serum starved overnight. Increasing concentrations of test compounds were added along with EC20 of acetylcholine in OptiMEM medium to the cells. The incubation was continued at 37° C. in CO2 incubator for 4 hours. Medium was removed and cells were washed with phosphate buffered saline. The cells were lysed and luciferase activity was measured in a Luminometer. Luminescence units were plotted against the compound concentrations using Graphpad software. EC50 values of the compounds were defined as the concentration required in stimulating the luciferase activity by 50% in presence of EC20 of acetylcholine.
# Male Wistar rats = assay: Object recognition task model (time induced memory deficit); assay type: in vivo, rat; settings: p.o.; for Exploration time mean ± S.E.M, Familiar object / Exploration time mean ± S.E.M, Novel object: choice trial 24 hours after T1
# Procedure: Object Recognition Task Model
# The cognition enhancing properties of compounds of this invention were estimated by using this model.
# Male Wistar rats (8-10 weeks old) were used as experimental animals. Four animals were housed in each cage. Animals were kept on 20% food deprivation from a day prior to experimentation. Water was provided ad libitum throughout the experiment. Animals were maintained on a 12 hours light/dark cycle in temperature and humidity controlled room. The experiment was carried out in an open field made up of acrylic. Rats were habituated to individual arenas (open field) for 1 hour in the absence of any objects on day 1.
# One group of 12 rats received vehicle and another set of animals received test compounds or test compounds and Donepezil, before the familiar (T1) and choice (T2) trials. During the familiarization phase, (T1), the rats were placed individually in the arena for 3 minutes, in which two identical objects (a1 and a2) were positioned 10 cm from the wall. 24 hours after T1, trial for long-term memory test was performed. The same rats were placed in the same arena as they were placed in T1 trial. During the choice phase (T2) rats were allowed to explore the arena for 3 minutes in presence of a copy of familiar object (a3) and one novel object (b). During the T1 and T2 trial, explorations of each object (defined as sniffing, licking, chewing or having moving vibrissae whilst directing the nose towards the object at a distance of less than 1 cm) were recorded using stopwatch.
# T1 is the total time spent exploring the familiar objects (a1+a2).
# T2 is the total time spent exploring the familiar object and novel object (a3+b). Discriminative index=Time spent with novel object/(time spent with novel and familiar object).
# The object recognition test was performed as described in Behavioural Brain Research, 1988, 31, 47-59.
# [2] = Rodent pharmacokinetic study; assay type: in vivo, rat; settings: male Wistar rats; for clearance / half-life / Vd / Cmax / Tmax / bioavailability: rat, plasma; for Vd: read-out: Vz; for bioavailability: 3 mg/kg oral vs 1 mg/kg i.v.
# Procedure: Rodent Pharmacokinetic Study
# Male Wistar rats (260±50 grams) were used as experimental animals. Animals were housed individually in polypropylene cage. Two days prior to study, male Wistar rats were anesthetized with isoflurane for surgical placement of jugular vein catheter. Rats were randomly divided for oral (3 mg/kg) and intravenous (1 mg/kg) dosing (n=3/group) and fasted overnight before oral dosing (p.o.). However, rats allocated to intravenous (i.v.) dosing food and water was provided ad libitum.
# At pre-determined point, blood was collected through jugular vein and replenished with an equivalent volume of normal saline. Collected blood was transferred into a labeled eppendorf tube containing 10 μL of heparin as an anticoagulant. Typically blood samples were collected at following time points: 0.08, 0.25, 0.5, 1, 2, 4, 6, 8, and 24 hours post dose. Blood was centrifuged at 4000 rpm for 10 minutes. Plasma was separated and stored frozen at −80° C. until analysis. The concentrations of the test compounds were quantified in plasma by qualified LC-MS/MS method using suitable extraction technique. The test compounds were quantified in the calibration range around 1-1000 ng/mL in plasma. Study samples were analyzed using calibration samples in the batch and quality control samples spread across the batch.
# Pharmacokinetic parameters Cmax, Tmax, AUCt, T1/2, clearance, Vz and bioavailability were calculated by non-compartmental model using standard non-compartmental model by using Phoenix WinNonlin 6.0.2 or 6.0.3 version Software package.
# [3] = Rodent brain penetration study; assay type: in vivo; settings: rat, oral, 3 mg/kg, p.o., male Wistar rats, read-out: Single dose Rat Brain Penetration (Cb/Cp)
# Procedure: Rodent Brain Penetration Study
# Male Wistar rats (260±40 grams) were used as experimental animals. Three animals were housed in each cage. Animals were given water and food ad libitum throughout the experiment and maintained on a 12 hours light/dark cycle.
# Brain penetration was determined in discrete manner in rats. One day prior to dosing day, male Wistar rats were acclimatized and randomly grouped according to their weight. At each time point (0.50, 1 and 2 hours) n=3 animals were used.
# The test compounds were suitably preformulated and administered orally at (free base equivalent) 3 mg/kg. Blood samples were removed via cardiac puncture by using isoflurane anesthesia. The animals were sacrificed to collect brain tissue. Plasma was separated and brain samples were homogenized and stored frozen at −20° C. until analysis. The concentrations of the test compounds in plasma and brain were determined using LC-MS/MS method.
# The test compounds were quantified in plasma and brain homogenate by qualified LC-MS/MS method using suitable extraction technique. The test compounds were quantified in the calibration range of 1-500 ng/mL in plasma and brain homogenate. Study samples were analyzed using calibration samples in the batch and quality control samples spread across the batch. Extent of brain-plasma ratio was calculated (Cb/Cp).
# recombinant human Muscarinic M1 receptor, sequence (P11229 whole entry): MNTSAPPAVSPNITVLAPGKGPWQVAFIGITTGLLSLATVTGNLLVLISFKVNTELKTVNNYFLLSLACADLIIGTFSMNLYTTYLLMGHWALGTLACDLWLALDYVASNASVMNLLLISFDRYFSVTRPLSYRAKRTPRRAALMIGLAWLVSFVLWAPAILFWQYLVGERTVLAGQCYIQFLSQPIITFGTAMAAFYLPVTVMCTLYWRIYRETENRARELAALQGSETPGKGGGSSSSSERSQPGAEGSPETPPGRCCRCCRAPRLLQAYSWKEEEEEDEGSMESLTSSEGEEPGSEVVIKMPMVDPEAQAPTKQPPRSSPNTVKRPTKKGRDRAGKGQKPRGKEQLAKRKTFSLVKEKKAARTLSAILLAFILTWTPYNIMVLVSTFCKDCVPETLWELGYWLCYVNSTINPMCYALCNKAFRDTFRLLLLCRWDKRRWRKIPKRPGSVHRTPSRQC
EC50 [1] [nM],AUC0-t ([2]; 1 mg/kg i.v. (bolus)) [ng·h/mL],AUC0-t ([2]; 3 mg/kg oral (gavage)) [ng·h/mL],"clearance ([2]; iv, 1 mg/kg i.v. (bolus)) [mL/min/kg]","half-life ([2]; iv, 1 mg/kg i.v. (bolus)) [h]","Vd ([2]; iv, 1 mg/kg i.v. (bolus)) [L/kg]",Cmax ([2]; 3 mg/kg oral (gavage)) [ng/mL],Tmax ([2]; 3 mg/kg oral (gavage)) [h],half-life ([2]; 3 mg/kg oral (gavage)) [h],bioavailability [2] [%],Kp [3],SMILES,Inference (Male Wistar rats; 3 mg/kg),"Exploration time mean ± S.E.M, Familiar object (Male Wistar rats; 3 mg/kg) [s]","Exploration time mean ± S.E.M, Novel object (Male Wistar rats; 3 mg/kg) [s]",Inference (Male Wistar rats; 1 mg/kg),"Exploration time mean ± S.E.M, Familiar object (Male Wistar rats; 1 mg/kg) [s]","Exploration time mean ± S.E.M, Novel object (Male Wistar rats; 1 mg/kg) [s]",Inference (Male Wistar rats; 10 mg/kg),"Exploration time mean ± S.E.M, Familiar object (Male Wistar rats; 10 mg/kg) [s]","Exploration time mean ± S.E.M, Novel object (Male Wistar rats; 10 mg/kg) [s]"
891,553 ± 42,652 ± 227,29 ± 2,1.7 ± 0.3,4.3 ± 0.9,313 ± 111,0.5,1.8 ± 0.3,39 ± 14,1.04 ± 0.16,"O=C(N[C@H]1CCCC[C@@H]1O)C1=CN(Cc2cccc(F)c2)c2ccccc2O1 [Example 7, N-(cis-1S, 2S-2-Hydroxycyclohexyl)-4-(3-fluorobenzyl)-4H-benzo[1,4]oxazine-2-carboxamide]",Active,9.23 ± 1.53,13.92 ± 1.99,–,–,–,–,–,–
1180,452 ± 135,719 ± 269,39 ± 10,1.2 ± 0.6,3.5 ± 1,159 ± 26,1.5 ± 0.9,3.2 ± 2,53 ± 20,1.96 ± 0.91,"O=C(N[C@H]1CCCC[C@@H]1O)C1=CN(Cc2cccc(F)c2F)c2ncccc2O1 [Example 33, N-(cis-1S,2S-2-Hydroxycyclohexyl)-4-(2,3-difluorobenzyl)-4H-pyrido[3,2-b][1,4]oxazine-2-carboxamide]",–,–,–,–,–,–,–,–,–
120,1240 ± 84,2490 ± 223,13 ± 1,3.8 ± 0.5,4.4 ± 0.2,252 ± 17,1.67 ± 0.6,3.7 ± 0.1,67 ± 6,–,"O=C(N[C@H]1CCCC[C@@H]1O)C1=CN(Cc2ccc(F)c(F)c2)c2ccccc2O1 [Example 19, N-(cis-1S,2S-2-Hydroxycyclohexyl)-4-(3,4-difluorobenzyl)-4H-benzo[1,4]oxazine-2-carboxamide]",–,–,–,–,–,–,–,–,–
149,600 ± 74,467 ± 169,27 ± 3,9.2 ± 2.2,22 ± 8,91 ± 38,4,2.6 ± 0.2,26 ± 9,1.92 ± 0.24,"O=C(N[C@H]1CCCC[C@@H]1O)C1=CN(Cc2cccc(C(F)(F)F)c2)c2ccccc2O1 [Example 17, N-(cis-1S, 2S-2-Hydroxycyclohexyl)-4-(3-trifluoromethylbenzyl)-4H-benzo[1,4]oxazine-2-carboxamide]",–,–,–,–,–,–,–,–,–
323,419 ± 182,437 ± 138,44 ± 21,1.5 ± 0.9,6.8 ± 7.1,428 ± 78,0.42 ± 0.14,1.2 ± 0.6,35 ± 11,0.32 ± 0.02,"O=C(N[C@H]1CCCC[C@@H]1O)C1=CN(Cc2ccncc2)c2ccccc2O1 [Example 23, N-(cis-1S,2S-2-Hydroxycyclohexyl)-4-(pyridin-4-ylmethyl)-4H-benzo[1,4]oxazine-2-carboxamide]",–,–,–,Active,13.15 ± 1.55,17.99 ± 2.53,–,–,–
498,838 ± 163,1500 ± 200,20 ± 4,1.9 ± 0.6,3.1 ± 0.3,392 ± 43,1,1.8 ± 0.1,60 ± 8,1.44 ± 0.16,"COc1cc(CN2C=C(C(=O)N[C@H]3CCCC[C@@H]3O)Oc3ccccc32)ccn1 [Example 11, N-(cis-1S,2S-2-Hydroxycyclohexyl)-4-(2-methoxypyridin-4-ylmethyl)-4H-benzo[1,4]oxazine-2-carboxamide]",–,–,–,Active,10.05 ± 1.66,16.92 ± 1.86,–,–,–
1470,262 ± 50,255 ± 32,64 ± 11,0.8 ± 0.2,4.2 ± 0.7,195 ± 22,0.33 ± 0.14,1.7 ± 1,32 ± 4,–,"O=C(N[C@H]1CCCC[C@@H]1O)C1=CN(Cc2ccccn2)c2ccccc2S1 [Example 92, N-(cis-1S,2S-2-Hydroxycyclohexyl)-4-{pyridin-2-ylmethyl}-4H-benzo[1,4]thiazine-2-carboxamide]",–,–,–,–,–,–,–,–,–
135,1150 ± 62,3980 ± 533,14 ± 1,4.5 ± 0.2,5.6 ± 0.5,430 ± 35,2.83 ± 2.02,3.9 ± 0.1,115 ± 15,0.9 ± 0.15,"COc1ccc(CN2C=C(C(=O)N[C@H]3CCCC[C@@H]3O)Oc3ccccc32)cc1 [Example 5, N-(cis-1S, 2S-2-Hydroxycyclohexyl)-4-(4-methoxybenzyl)-4H-benzo[1,4]oxazine-2-carboxamide]",–,–,–,–,–,–,–,–,–
420,533 ± 62,371 ± 149,31 ± 4,3.6 ± 3,9.8 ± 8,132 ± 32,1,2.3 ± 0.5,23 ± 9,1.93 ± 0.37,"O=C(N[C@H]1CCCC[C@@H]1O)C1=CN(Cc2cccc(F)c2)c2cccc(F)c2O1 [Example 51, N-(cis-1S,2S-2-Hydroxycyclohexyl)-4-{3-fluorobenzyl}-8-fluoro-4H-benzo[1,4]oxazine-2-carboxamide]",–,–,–,–,–,–,–,–,–
1250,–,–,–,–,–,–,–,–,–,0.82 ± 0.25,"O=C(NC1CCOCC1O)C1=CN(Cc2cccc(F)c2F)c2ccccc2O1 (stereo not drawn) [Example 20, N-(3-Hydroxytetrahydrpyran-4-yl)-4-(2,3-difluorobenzyl)-4H-benzo[1,4]oxazine-2-carboxamide]",–,–,–,–,–,–,Active,12.17 ± 1.84,19.94 ± 3.02
